How the values were obtained:
L5178Y cells = experiment: Induction of apoptosis (DNA fragmentation) in L5178Y-R cells (Table 6); format: cell-based, mouse; conditions: 0.5 μM, DMF-Tween 80
Procedure, shortened: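 Exponentially growing mouse lymphoma L5178Y-R cells loaded 18 hours with phthalocyanine at various concentrations, then irradiated with >600 nm red light (up to 30 kJ/m^2, ~74 W/m^2). DNA isolated 2 hours post-PDT, run on 1.5% agarose; value is minimum PDT dose (concentration × fluence) giving visible DNA ladder.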

V79 cells = experiment: Clonogenicity, killing of V79 cells using photodynamic therapy (Table 3); format: cell-based, Chinese hamster; conditions: Cricetulus griseus, V79; concentration not given, at 10 kJ/m^2; read-out: Maximum Effect (% survival)
Procedure, shortened: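 V79 Chinese hamster lung fibroblasts were loaded with 0.5 or 1.0 μM phthalocyanine, then about 18 h later irradiated with increasing doses of 675 nm broad-band red light (tungsten-halogen lamp, 600 nm high-pass filter). Recorded value is the light dose killing 90% of cells, or, failing that, the maximum kill (% survival) and its dose.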

Row | Compound | solubility in DMF (Solubility) | Minimum Demonstrated Condition to induce apoptosis: C × F (L5178Y cells) [μm × kJ/m^2] | Minimum Demonstrated Condition to induce apoptosis: Fluence (L5178Y cells) [kJ/m^2] | Cell survival at highest light dose (V79 cells) [%] | solubility (Solubility) [µM]
1 | C[Si](C)(CCCN1CCNCC1)O[Si]1(O[Si](C)(C)CCCN2CCNCC2)n2c3c4ccccc4c2N=C2N=C(N=c4c5ccccc5c(n41)=NC1=NC(=N3)c3ccccc31)c1ccccc12 [Compound XXXII, SiPc[OSi(CH3)2 (CH2)3 NC4 H8 NH]2] | not soluble in DMF | 2.5 | 5 | – | –
2 | CN1CCN(CCC[Si](C)(C)O[Si]2(O[Si](C)(C)CCCN3CCN(C)CC3)n3c4c5ccccc5c3N=C3N=C(N=c5c6ccccc6c(n52)=NC2=NC(=N4)c4ccccc42)c2ccccc23)CC1 [Compound XXX, SiPc[OSi(CH3)2 (CH2)3 NC4 H8 NCH3]2] | not soluble in DMF | 7.5 | 15.0 | 30 | < 500

Reference: patent US5484778A, “Phthalocyanine photosensitizers for photodynamic therapy and methods for their use” (priority 1993, dated 1996)
